Key:
[1] = Thermal stability (Tm) by CD signal at 222 nm; format: physicochemical; conditions: CD at 222 nm, maximum of first derivative of thermal transition
Description: (§1) Assessment of biophysical parameters included measurement of helicity and thermal stability. Helicity was assessed by circular dichroism (“CD”) as follows. Briefly, CD spectra were obtained using a spectrometer equipped with a thermoelectric temperature controller. The spectra was obtained at 25° C. with 0.5 nanometer (nm) steps from 200 to 260 nm, with a 1.5 nm bandwith, and a typical averaging time of 4 seconds/step. After the cell/buffer blank was subtracted, spectra were smoothed using a third-order least-squares polynomial fit with a conservative window size to give random residuals. Raw ellipticity values were converted to mean residue ellipticity using standard methods, and plotted was the wavelength (from 200 to 260 nm) versus [θ]×10−3 (degrees cm^2/dmol). Percent helicity values were then calculated using standard methods (usually expressed as percent helicity at 10 μM, 25° C.). Assessment of thermal stability was performed by monitoring the change in CD signal at 222 nm as temperature was raised in 2° C. steps, with 1 minute equilibration times. The stability for each sample (e.g., HIV fusion inhibitor peptide), as represented by the Tm value, is the temperature corresponding to the maximum value of the first derivative of the thermal transition.

[2] = Helicity by circular dichroism (CD); format: physicochemical; conditions: usually percent helicity at 10 μM, 25° C.
Description: as §1

[3] = tested on: HIV-IIIB; conditions: 50% reduction in infectious virus titer
Source text: Assessment of biological properties included measurement of antiviral activity against HIV-1 strains. […] These assays score for reduction of infectious virus titer employing the indicator cell lines MAGI or the CCR5 expressing derivative cMAGI. Both cell lines exploit the ability of HIV-1 tat to transactivate the expression of a β-galactosidase reporter gene driven by the HIV-LTR. The β-gal reporter has been modified to localize in the nucleus and can be detected with the X-gal substrate as intense nuclear staining within a few days of infection. The number of stained nuclei can thus be interpreted as equal to the number of infectious virions in the challenge inoculum if there is only one round of infection prior to staining. […] In the MAGI and cMAGI assays, a 50% reduction in infectious titer (Vn/Vo=0.5) is significant, and provides the primary cutoff value for assessing antiviral activity (“IC50” is defined as the concentration of active ingredient resulting in a 50% reduction in infectious virus titer). […] The number of infected cells for each control and peptide dilution was determined with the CCD-imager, and then the IC50 was calculated (expressed in μg/ml).

[4] = tested on: HIV-Res; format: cell-based, HIV-1; conditions: resistant viral isolate "Res"
Source text: Assessment of biological properties included measurement of antiviral activity against HIV-1 strains. In determining antiviral activity (e.g., one measure being the ability to inhibit transmission of HIV to a target cell) of the HIV fusion inhibitor peptides, an in vitro assay which has been shown, by data generated using peptides derived from the HR regions of HIV gp41, to be predictive of antiviral activity observed in vivo was used. […] These assays score for reduction of infectious virus titer employing the indicator cell lines MAGI or the CCR5 expressing derivative cMAGI. Both cell lines exploit the ability of HIV-1 tat to transactivate the expression of a β-galactosidase reporter gene driven by the HIV-LTR. The β-gal reporter has been modified to localize in the nucleus and can be detected with the X-gal substrate as intense nuclear staining within a few days of infection. […] The number of infected cells for each control and peptide dilution was determined with the CCD-imager, and then the IC50 was calculated (expressed in μg/ml).
Viruses resistant to the antiviral activity of a peptide consisting of a base sequence can be produced using standard laboratory methods. […] The cultures are maintained and monitored until syncytia are present. […] The second round of culture is maintained and monitored for presence of virus resistant to the antiviral activity of the peptide. […]

Substance: Ac-TTWEAWDRAIAEYAARIEALLRALQEQQEKNEAALREL-NH2 [SEQ ID NO:9, TTWEAWDRAIAEYAARIEALLRALQEQQEKNEAALREL]
- Tm (° C.) [1]: 62 °C
- Helicity (%) [2]: 61%
- Antiviral Activity (μg/ml) HIV-IIIB IC50 [3]: <0.10 µg/mL
- Antiviral Activity (μg/ml) HIV-Res IC50 [4]: <0.10 µg/mL

From patent US20090068243A1, “Novel formulations for delivery of antiviral peptide therapeutics” (priority 2007, published 2009)
